A short description of series [1]: Octanol-water partition coefficient. The format is physicochemical. The following applies: 177Lu-labelled; n-octanol/PBS pH 7.4; n=6. The method, then:
Approximately 1 MBq of the labelled tracer was dissolved in 1 mL of a 1:1 mixture (v/v) of PBS (pH 7.4) and n-octanol in a reaction vial (1.5 mL). After vigorous mixing of the suspension for 3 minutes at room temperature, the vial was centrifuged at 15000 g for 3 minutes (Biofuge 15, Heraeus Sepatech, Osterode, Germany) and 100 μL aliquots of both layers were measured in a gamma counter. The experiment was repeated at least six times.
FIG. 5 and the following table summarize log PO/W values of the synthesized radiolabeled ^177Lu-PSMA ligand compounds and ^177Lu-references (n=6).

Another series has as its system LNCaP cells. Briefly: Internalization studies on LNCaP cells. The conditions noted are these: 177Lu-labelled, c=1.0 nM, 1 hour, 37 °C; % of reference ligand ([125I]I-BA)KuE (c=0.2 nM); corrected for non-specific binding (PMPA); mean±SD, n=3-6. The format is cell-based. The method, then:
PSMA-positive LNCAP cells (300265; Cell Lines Service, Eppelheim, Germany) were cultivated in Dulbecco modified Eagle medium/Nutrition Mixture F-12 with Glutamax (1:1) (DMEM-F12, Biochrom, Berlin, Germany) supplemented with fetal bovine serum (10%, FBS Zellkultur, Berlin, Germany) and kept at 37° C. in a humidified CO2 atmosphere (5%). A mixture of trypsin and EDTA (0.05%, 0.02%) in PBS (Biochrom) was used in order to harvest cells. Cells were counted with a Neubauer hemocytometer (Paul Marienfeld, Lauda-Königshofen, Germany).
For internalization studies, LNCaP cells were harvested 24±2 hours before the experiment and seeded in poly-L-lysine coated 24-well plates (1.25×10^5 cells in 1 mL/well, Greiner Bio-One, Kremsmünster, Austria). After removal of the culture medium, the cells were washed once with 500 μL DMEM-F12 (5% BSA) and left to equilibrate for at least 15 min at 37° C. in 200 μL DMEM-F12 (5% BSA). Each well was treated with either 25 μL of either DMEM-F12 (5% BSA, control) or 25 μL of a 100 μM PMPA (2-(Phosphonomethyl)-pentandioic acid, Tocris Bioscience, Bristol, UK) solution in PBS, for blockade. Next, 25 μL of the radioactive-labelled PSMA inhibitor (10.0 nM in PBS) was added and the cells were incubated at 37° C. for 60 min. The experiment was terminated by placing the 24-well plate on ice for 3 min and consecutive removal of the medium. Each well was carefully washed with 250 μL of ice-cold HBSS. Both fractions from the first steps, representing the amount of free radioligand, were combined. Removal of surface bound activity was accomplished by incubation of the cells with 250 μL of ice-cold PMPA (10 μM in PBS) solution for 5 min and rinsed again with another 250 μL of ice-cold PBS. The internalized activity was determined by incubation of the cells in 250 μL 1 M aqueous NaOH for at least 10 min. The obtained fractions were combined with those of the subsequent wash step with 250 μL 1 M aqueous NaOH. Each experiment (control and blockade) was performed in triplicate. Free, surface bound and internalized activity was quantified in a γ-counter. All internalization studies were accompanied by external reference studies, using ([^125I]l-BA)KuE (c=0.2 nM), which were performed analogously. Data were corrected for non-specific binding and normalized to the specific-internalization observed for the radioiodinated reference compound.
Data is corrected for non-specific binding (10 μmol PMPA) and expressed as mean±SD (n=3-6): […]

Series [2] deals with LNCaP tumor-bearing CB17-SCID mice. In words: Biodistribution studies 24 h p.i. The conditions noted are these: 177Lu-labelled, mean±SD, n=4-5; for biodistribution: tumor: LNCaP xenograft; for biodistribution: blood: i.v. tail vein. The format is in vivo. The method, then:
All animal experiments were conducted in accordance with general animal welfare regulations in Germany (German animal protection act, as amended on 18 May 2018, Art. 141 G v. 29.3.2017|626, approval no. 55.2-1-54-2532-71-13) and the institutional guidelines for the care and use of animals. To establish tumor xenografts, LNCaP cells (approx. 10^7 cells) were suspended in 200 μL of a 1:1 mixture (v/v) of DMEM F-12 and Matrigel (BD Biosciences, Germany), and inoculated subcutaneously onto the right shoulder of 6-8 weeks old CB17-SCID mice (Charles River, Sulzfeld, Germany). Mice were used for experiments when tumors had grown to a diameter of 5-10 mm (3-6 weeks after inoculation).
Approximately 5-10 MBq (0.1-0.2 nmol) of the radioactive-labelled PSMA inhibitors were injected into the tail vein of LNCaP tumor-bearing male CB-17 SCID mice and sacrificed after 24 h post injection. Selected organs were removed, weighted and measured in a γ-counter.
FIG. 10 and the following table show the biodistribution data 24 h p.i. of ^177Lu-labeled compounds in LNCaP tumor-bearing CB17-SCID mice. Data are expressed as mean±SD (n=4-5).

Molecules are shown by their SMILES.

As to `CC(C)(C)[Si](O)(c1ccc(C(=O)NC[C@@H](NC(=O)CC[C@@H](C(=O)O)N2CCN(CC(=O)O)CCN(CC(=O)O)CCN(CC(=O)O)CC2)C(=O)N[C@H](CCCCNC(=O)CCC(=O)NCCC[C@@H](NC(=O)CC[C@H](NC(=O)N[C@@H](CCC(=O)O)C(=O)O)C(=O)O)C(=O)O)C(=O)O)cc1)C(C)(C)C` [7.3-SiOH], the “Log PO/W” value in series [1] was −3.9 ± 0.1. Further, the “Internalization (% IBA)” value in the series on LNCaP cells is recorded as 225 ± 23 % IBA. For the same molecule, in series [2], the “biodistribution: tumor” value came to 7.3 ± 0.8 % ID/g, the “biodistribution: blood” value was found to be 0.002 ± 0.001 % ID/g, the “biodistribution: bone” value was 0.01 ± 0.01 % ID/g and the “biodistribution: heart” value is reported as 0.01 ± 0.01 % ID/g. Also, in series [2], the “biodistribution: intestine” value was found to be 0.45 ± 0.39 % ID/g, the “biodistribution: kidneys” value stood at 3.7 ± 1.9 % ID/g, the “biodistribution: liver” value was determined as 0.08 ± 0.03 % ID/g and the “biodistribution: lung” value worked out at 0.03 ± 0.01 % ID/g. In series [2], the “biodistribution: muscle” value came out at 0.006 ± 0.005 % ID/g, the “biodistribution: pancreas” value turned out to be 0.01 ± 0.01 % ID/g, the “biodistribution: spleen” value is recorded as 0.21 ± 0.11 % ID/g and the “biodistribution: stomach” value was found to be 0.24 ± 0.36 % ID/g.

Turning to `CC(C)(C)[Si](O)(c1ccc(C(=O)NC[C@@H](NC(=O)CC[C@@H](C(=O)O)N2CCN(CC(=O)O)CCN(CC(=O)O)CCN(CC(=O)O)CC2)C(=O)N[C@H](CO)C(=O)NCCC(=O)NCCC(=O)NCCC[C@@H](NC(=O)CC[C@H](NC(=O)N[C@@H](CCC(=O)O)C(=O)O)C(=O)O)C(=O)O)cc1)C(C)(C)C` [C007-SiOH], in series [1], the “Log PO/W” value is given as −4.28 ± 0.09. Further, the “Internalization (% IBA)” value with LNCaP cells was determined as 185 ± 15 % IBA. In addition, in series [2], the “biodistribution: tumor” value is listed as 5.4 ± 0.8 % ID/g, the “biodistribution: blood” value worked out at 0.003 ± 0.001 % ID/g, the “biodistribution: adrenals” value was found to be 0.20 ± 0.01 % ID/g and the “biodistribution: bone” value amounted to 0.02 ± 0.01 % ID/g. Further, in series [2], the “biodistribution: heart” value was 0.02 ± 0.01 % ID/g, the “biodistribution: intestine” value came out at 0.13 ± 0.08 % ID/g, the “biodistribution: kidneys” value is on record as 3.5 ± 1.4 % ID/g and the “biodistribution: liver” value was found to be 0.40 ± 0.13 % ID/g. For the same molecule, in series [2], the “biodistribution: lung” value is reported as 0.04 ± 0.01 % ID/g, the “biodistribution: muscle” value came to 0.004 ± 0.001 % ID/g, the “biodistribution: pancreas” value worked out at 0.01 ± 0.01 % ID/g and the “biodistribution: parotis” value was found to be 0.06 ± 0.03 % ID/g. In series [2], the “biodistribution: spleen” value is 0.40 ± 0.10 % ID/g, the “biodistribution: stomach” value came out at 0.04 ± 0.01 % ID/g and the “biodistribution: submandibularis” value amounted to 0.03 ± 0.01 % ID/g.

Take `CC(C)(C)[Si](O)(c1ccc(C(=O)NC[C@@H](NC(=O)CC[C@@H](C(=O)O)N2CCN(CC(=O)O)CCN(CC(=O)O)CCN(CC(=O)O)CC2)C(=O)NCC(=O)N[C@@H](CCCCNC(=O)CCC(=O)NCCC[C@@H](NC(=O)CC[C@H](NC(=O)N[C@@H](CCC(=O)O)C(=O)O)C(=O)O)C(=O)O)C(=O)O)cc1)C(C)(C)C` [E102-SiOH]: the “Log PO/W” value in series [1] is recorded as −4.14 ± 0.08. In the series with LNCaP cells, the “Internalization (% IBA)” value amounted to 203 ± 15 % IBA. In addition, in series [2], the “biodistribution: tumor” value is on record as 4.4 ± 0.6 % ID/g, the “biodistribution: blood” value is reported as 0.002 ± 0.001 % ID/g, the “biodistribution: adrenals” value amounted to 0.05 ± 0.03 % ID/g and the “biodistribution: bone” value is given as 0.03 ± 0.01 % ID/g. In series [2], the “biodistribution: heart” value is 0.02 ± 0.02 % ID/g, the “biodistribution: intestine” value was 0.43 ± 0.31 % ID/g, the “biodistribution: kidneys” value is 3.3 ± 2.9 % ID/g and the “biodistribution: liver” value is 0.05 ± 0.02 % ID/g. In series [2], the “biodistribution: lung” value was 0.04 ± 0.02 % ID/g, the “biodistribution: muscle” value was 0.001 ± 0.001 % ID/g, the “biodistribution: pancreas” value is 0.01 ± 0.01 % ID/g and the “biodistribution: parotis” value is listed as 0.02 ± 0.01 % ID/g. For the same molecule, in series [2], the “biodistribution: spleen” value was 0.13 ± 0.10 % ID/g, the “biodistribution: stomach” value came out at 0.08 ± 0.07 % ID/g and the “biodistribution: submandibularis” value is 0.01 ± 0.01 % ID/g.

Take `CC(C)(C)[Si](O)(c1ccc(C(=O)NC[C@@H](NC(=O)CCCCCNC(=O)CCCNC(=O)CC[C@@H](NC(=O)CCC(NC(=O)N[C@@H](CCC(=O)O)C(=O)O)C(=O)O)C(=O)O)C(=O)NCC(=O)N[C@@H](CCCCNC(=O)CC[C@@H](C(=O)O)N2CCN(CC(=O)O)CCN(CC(=O)O)CCN(CC(=O)O)CC2)C(=O)O)cc1)C(C)(C)C` (stereo partly drawn) [E104-SiOH]: the “Log PO/W” value in series [1] is given as −3.77 ± 0.16. In addition, the “Internalization (% IBA)” value with LNCaP cells came out at 103 ± 2 % IBA.

`CC(C)(C)[Si](O)(c1ccc(C(=O)N[C@H](CCC(=O)NC[C@@H](NC(=O)CC[C@@H](C(=O)O)N2CCN(CC(=O)O)CCN(CC(=O)O)CCN(CC(=O)O)CC2)C(=O)NCCCCCC(=O)NCCC[C@@H](NC(=O)CC[C@H](NC(=O)N[C@@H](CCC(=O)O)C(=O)O)C(=O)O)C(=O)O)C(=O)O)cc1)C(C)(C)C` [P105-SiOH]: the “Log PO/W” value in series [1] is reported as −3.94 ± 0.07. In addition, the “Internalization (% IBA)” value in the series with LNCaP cells came out at 185 ± 4 % IBA. In series [2], the “biodistribution: tumor” value is on record as 6.3 ± 2.1 % ID/g, the “biodistribution: blood” value stood at 0.004 ± 0.003 % ID/g, the “biodistribution: adrenals” value amounted to 0.12 ± 0.01 % ID/g and the “biodistribution: bone” value is 0.02 ± 0.01 % ID/g. In series [2], the “biodistribution: heart” value was found to be 0.01 ± 0.01 % ID/g, the “biodistribution: intestine” value turned out to be 0.08 ± 0.05 % ID/g, the “biodistribution: kidneys” value is reported as 4.2 ± 2.5 % ID/g and the “biodistribution: liver” value is recorded as 0.37 ± 0.07 % ID/g. Besides, in series [2], the “biodistribution: lung” value worked out at 0.04 ± 0.01 % ID/g, the “biodistribution: muscle” value was 0.004 ± 0.001 % ID/g, the “biodistribution: pancreas” value was 0.01 ± 0.01 % ID/g and the “biodistribution: parotis” value came to 0.07 ± 0.03 % ID/g. In addition, in series [2], the “biodistribution: spleen” value came out at 0.31 ± 0.10 % ID/g, the “biodistribution: stomach” value came to 0.02 ± 0.01 % ID/g and the “biodistribution: submandibularis” value is on record as 0.03 ± 0.01 % ID/g.

In the case of `CC(C)(C)[Si](O)(c1ccc(C[N+](C)(C)CC(=O)NCCC[C@@H](NC(=O)CC[C@@H](C(=O)O)N2CCN(CC(=O)O)CCN(CC(=O)O)CCN(CC(=O)O)CC2)C(=O)NCCCCCC(=O)NCCC[C@@H](NC(=O)CC[C@H](NC(=O)N[C@@H](CCC(=O)O)C(=O)O)C(=O)O)C(=O)O)cc1)C(C)(C)C` [P110-SiOH], the “Log PO/W” value in series [1] is listed as −4.11 ± 0.07. Besides, the “Internalization (% IBA)” value in the series with LNCaP cells is reported as 46 ± 2 % IBA.

Source of the values: patent publication US20230277698A1, “SILICON-CONTAINING LIGAND COMPOUNDS” (Technische Universität München, priority 2020, published 2023).
